In patent EP2282358A1, “Host material for light-emitting devices” (Solvay SA, priority 2009, dated 2011):
Where two headings read alike, the source gives them in different places.

Key:
[1] = HOMO and LUMO measurement (cyclic voltammetry and optical energy gap); type: physicochemical; conditions: for HOMO: estimated from the LUMO level and the optical energy gap (UV-visible absorption onset); for LUMO: from peak potential of 1st reduction wave, cyclic voltammetry in anhydrous tetrahydrofuran, ferrocene internal standard
Experimental: The LUMO (lowest unoccupied molecular orbital) levels are estimated from cyclic voltammetry. Voltammetric measurements are performed using a PC-controlled Autolab PGSTAT128N electrochemical workstation coupled with a 663 VA Stand measure unit. Cyclic voltammograms are recorded at room temperature under an argon atmosphere in anhydrous tetrahydrofuran using 0.1 M tetrabutylammonium hexafluorophosphate (Fluka electrochemical grade) as supporting electrolyte. The working electrode is a glassy carbon disk and the counter electrode is a platinum wire or a glassy carbon rod. A silver/silver chloride electrode filled with a methanolic saturated KCl solution or a platinum wire pseudo-reference has been used as reference electrode. The sample solutions (0.5 mM) are outgassed with argon for 10 minutes before measurement. Measurements are performed with a sweep rate fixed to 0.1 V/s. Ferrocene is used as internal standard.
The LUMO level is estimated from the peak potential of the 1st observed reduction wave (E1 reduct.) using the following equation: ELUMO -(-4.8) = -[E1 reduct-EOX ½(Fc/(Fc)^+)] [formula] where EHOMO (ferrocene) has been taken equal to -4.8 eV below the vacuum level and EOX ½ (Fc/Fc^+) corresponds to the half-wave oxidation potential of the ferrocene internal standard.
The HOMO level could not be estimated directly from CV measurements because the 1st oxidation wave lies beyond the stability window of the two tested solvents (tetrahydrofuran and dichloromethane). The HOMO level is thus estimated from the LUMO level and optical energy gap (Eopt g): EHOMO = ELUMO -Eopt g , [formula] the optical energy gap being determined from the absorption onset in the UV-visible absorption spectrum.

[2] = Solubility tests in organic solvents; type: physicochemical; conditions: for solubilities toward chlorobenzene and toluene: result in words

Structure (SMILES) | HOMO [1] [eV] | LUMO [1] [eV] | solubilities toward chlorobenzene and toluene [2] | Solubility in chlorobenzene ([2]; solvent chlorobenzene) [wt%] | Solubility in toluene ([2]; solvent toluene) [wt%] | Solubility in chlorobenzene [2] [wt%] | Solubility in toluene [2] | solubility for most organic solvents [2]
CC(C)(C)c1ccc(-c2nnc(-c3cc(-c4nnc(-c5ccc(C(C)(C)C)cc5)o4)cc(C(C)(C)C)c3)o2)cc1 [tBu-OXD7] | -6.0 | -2.3 | good solubilities | > 7.2 | > 5 | – | – | –
CC(C)(C)c1ccc(-c2nnc(-c3cccc(-c4nnc(-c5ccc(C(C)(C)C)cc5)o4)c3)o2)cc1 [OXD7, reference compound] | -6.0 | -2.3 | – | – | – | < 1.5 | Not soluble | lacks solubility
CC(C)(C)c1ccc(-c2nnc(-c3cc(-c4nnc(-c5ccc(C(C)(C)C)cc5)o4)cc(C(F)(F)C(F)(F)C(F)(F)C(F)(F)C(F)(F)C(F)(F)F)c3)o2)cc1 [Formula C6F13-OXD7] | -6.1 | -2.5 | good solubilities | > 4.5 | 2.5 | – | – | –
